Data as given in ChEMBL document CHEMBL2375317, “Heterocyclic bismuth carboxylates based on a diphenyl sulfone scaffold: synthesis and antifungal activity against Saccharomyces cerevisiae” (Eur J Med Chem, 2013).

Tested on: Saccharomyces cerevisiae
Test: Antifungal activity against Saccharomyces cerevisiae W303-1A at 30 mM after 48 hrs
Type: functional, organism-based

First: 2,8-Dihydroxy-10-chlorophenothiabismine 5,5-dioxide
Second: 10-(1,3-Dibromoazulene-2-carboxy)phenothiabismine 5,5-dioxide
The inhibition zone (IZ) of the first is lower: 8 mm for the first, 12 mm for the second.

“10-(1,3-Dichloroazulene-2-carboxy)phenothiabismine 5,5-dioxide” and “10-(1-Naphthoyloxy)phenothiabismine 5,5-dioxide” are the same in inhibition zone (IZ): 13 mm for the first, 13 mm for the second.

“10-(2-Acetoxybenzoyloxy)phenothiabismine 5,5-dioxide” and “10-(2-Naphthoyloxy)phenothiabismine 5,5-dioxide” are the same in inhibition zone (IZ): 12 mm for the first, 12 mm for the second.

Going from “10-(4-Acetoxybenzoyloxy)phenothiabismine 5,5-dioxide” to “10-(4-Aminobenzoyloxy)phenothiabismine 5,5-dioxide”, the inhibition zone (IZ) falls from 17 mm to 15 mm.

First: 10-(4-Nitrobenzoyloxy)phenothiabismine 5,5-dioxide
Second: 10-(9-Anthranoyloxy)phenothiabismine 5,5-dioxide
The inhibition zone (IZ) of the first is higher: 17 mm for the first, 14 mm for the second.

Going from “10-(Azulene-1-carboxy)phenothiabismine 5,5-dioxide” to “10-(Azulene-2-carboxy)phenothiabismine 5,5-dioxide”, the inhibition zone (IZ) rises from 11 mm to 14 mm.

First: 10-(Azulene-6-carboxy)phenothiabismine 5,5-dioxide
Second: 10-(Benzoyloxy)phenothiabismine 5,5-dioxide
The inhibition zone (IZ) of the first is lower: 12 mm for the first, 17 mm for the second.

First: 10-(Cinnamoyloxy)phenothiabismine 5,5-dioxide
Second: 10-(Indol-3-acetoxy)phenothiabismine 5,5-dioxide
The inhibition zone (IZ) of the first is higher: 14 mm for the first, 13 mm for the second.

Going from “10-(N-Phthalylglycyloxy)phenothiabismine 5,5-dioxide” to “10-(Nicotinoyloxy)phenothiabismine 5,5-dioxide”, the inhibition zone (IZ) rises from 12 mm to 14 mm.

“10-(p-tolyl)benzo[b][1,4]benzothiabismine 5,5-dioxide” and “10-Chloro-2-phenylphenothiabismine 5,5-dioxide” are the same in inhibition zone (IZ): 0 mm for the first, 0 mm for the second.

Going from “10-Chloro-2-tert-butylphenothiabismine 5,5-dioxide” to “10-chlorobenzo[b][1,4]benzothiabismine 5,5-dioxide”, the inhibition zone (IZ) rises from 0 mm to 18 mm.

Work on “tert-butyl-[2-[tert-butyl(dimethyl)silyl]oxy-10-chloro-5,5-dioxo-benzo[b][1,4]benzothiabismin-8-yl]oxy-dimethyl-silane” yielded an inhibition zone (IZ) of 0 mm.
